In brackets after ≈: the same amount, converted by molar mass. Like-named read-outs stand apart in the source and are kept apart here. One block for each compound: values may come before it.
Columns and labels:
[1] = test system: Trichophyton rubrum ATCC MYA-3108; test: MIC by microdilution, filamentous fungi (CLSI M38-A); assay type: cell-based; conditions: Table 11, Trichophyton rubrum ATCC MYA-3108
[2] = test system: Candida tropicalis USP B3; test: MIC by microdilution (CLSI M27-A2); assay type: cell-based; set-up: key: —: There was no growth inhibition
Candida krusei ATCC 6258 = test: MIC/CFM by microdilution (CLSI M27-A2); assay type: cell-based; set-up: key to MIC: —: There was no growth inhibition
[3] = test system: Candida parapsilosis USP 1933; test: MIC/CFM by microdilution (CLSI M27-A2); assay type: cell-based; set-up: key to MIC: —: There was no growth inhibition
[4] = test system: Candida tropicalis USP 1658; test: MIC by microdilution (CLSI M27-A2); assay type: cell-based; set-up: key: —: There was no growth inhibition
[5] = test system: Candida albicans USP 1565; test: MIC by microdilution (CLSI M27-A2); assay type: cell-based; set-up: key: —: There was no growth inhibition
[6] = test system: Candida guilhermondii USP; test: MIC/CFM by microdilution (CLSI M27-A2); assay type: cell-based; set-up: key to MIC: —: There was no growth inhibition
[7] = test system: Microsporum canis ATCC 32903; test: MIC by microdilution, filamentous fungi (CLSI M38-A); assay type: cell-based; conditions: Table 13, Microsporum canis ATCC 32903, 7 days, 28° C.
Protocol: (§1) Pure substances termed P1 and P2 previously dissolved in 20% DMSO, were diluted in RPMI medium, with final concentrations of 96 μg.mL-1. […] Cultures of filamentous fungi described below were inoculated in Agar-Batata Dextrose medium and inoculated for 7 days, at 28° C. Colonies of cultures inoculated for 7 days in an oven at 28° C. were shrouded with 0.85% saline solution, scraped and then transferred to conical tubes. After resting for 5 minutes, the supernatant was transferred to new conical tubes for subsequent quantification in spectrophotometer, at 530 nm, with the transmittance adjustment of 80-82% for A. niger and 70% for other microorganisms. After adjustment, there was a 1:50 dilution in RPM. The determination of Minimum Inhibitory Concentration was performed after 7 days, at 28° C. After the incubation period, aliquots of 96-well plates were transferred to Petri plates with Potato Dextrose Agar, to determine the Minimum Fungicidal Concentration. Plates were inoculated for more 7 days, at 28° C.

[8] = test system: Phomopsis longicolla (soy isolate); test: as above; assay type: cell-based; conditions: Table 13, Phomopsis longicolla- soy, 7 days, 28° C.
Protocol: as §1

[9] = test system: Trichophyton menthagrophyton ATCC 9533; test: as above; assay type: cell-based; conditions: Table 13, Trichophyton menthagrophyton ATCC 9533, 7 days, 28° C.
Protocol: as §1

[10] = test system: Candida parapsilosis ATCC 22019; test: MIC/CFM by microdilution (CLSI M27-A2); assay type: cell-based
[11] = test system: Candida albicans OF-M3-20; test: MIC/CFM by microdilution (CLSI M27-A2); assay type: cell-based
Protocol: (§2) Pure substances termed P1 and P2 previously dissolved in 20% DMSO, were diluted in RPMI medium, with final concentrations of 96 μg.mL-1. […] The same was also tested individually, diluted in RPMI medium, with initial concentration of 1 μL.mL-1. […] Cultures of Candida sp. were prepared and standardized in […] saline solution at 0.85%. For inoculums standardization, a spectrophotometer equipment was used, with wavelength at 530 nm and absorbance adjustment between 0.130 and 0.150, having as white the saline solution free of inoculum or any other contaminant, corresponding to concentrations of 10^6 CFU/mL. In this condition the inoculum “mother” was diluted 50 times and from this inoculum “child” the dilution was performed 20 times to obtain a standard inoculum in 10^3 cells per well. […] To aid in the growth view, were added to the wells dye 50 μL 2,3,5-triphenyltetrazolium chloride (TTC) at 5 mg.mL “1, being performed the readings after 4 hours of incubation. Prior to the addition of dye, aliquots of 96-well plate were transferred to Petri with Agar-Sabouraud Dextrose to determine the Minimum Fungicidal Concentration. Plates were incubated for 24 hours at 35° C.

[12] = test system: Candida albicans OF-M7-19; test: MIC/CFM by microdilution (CLSI M27-A2); assay type: cell-based
Protocol: as §2

Candida albicans USP 1 = test: MIC/CFM by microdilution (CLSI M27-A2); assay type: cell-based
Protocol: as §2

Candida krusei USP 2223 = test: MIC by microdilution (CLSI M27-A2); assay type: cell-based; set-up: key: —: There was no growth inhibition
[13] = test system: Candida albicans ATCC 10231; test: MIC/CFM by microdilution (CLSI M27-A2); assay type: cell-based
Candida glabrata ATCC = test: MIC/CFM against Candida sp. strains; assay type: cell-based; conditions: Nakaseomyces glabratus; Table 14, Candida glabrata ATCC
C. Albicans USP 2 = test: MIC/CFM against Candida sp. strains; assay type: cell-based; conditions: Table 14, C. Albicans USP 2
DPPH antioxidant test = assay type: biochemical; conditions: 517 nm
Protocol: The antioxidant activity evaluation was performed through DPPH test.
Extract flower ethanol samples and PV6.7 were dissolved in methanol in concentrations of 1 mg.mL-1, 500 μg, mL-1, 250 μg, mL-1, 125 μg, mL-1, 62.5 μg, mL-1 and 31.25 μg, mL-1. As control Metabissulfito and Rutin were used in the same conditions of the samples.
Around 0.002 g of DPPH was dissolved in 50 mL of methanol. Then, it was verified the solution absorbance in spectrophotometer, in 517 nm, which must be below 1.
In a plastic Eppendorf, it was added 950 μL of methanolic solution of DPPH and 50 μL of the sample. As white, it was used in the place of the sample 50 μL of methanol. The samples were then incubated for 15 minutes at 30° C. After this period, the solutions were transferred to cuvettes and performed the readings at 517 nm, zeroing the spectrophotometer with methanol.
% inhibition=B−A/B×100, being A=sample, and B=White

[14] = Table 11, C. parapsilosis USP 1933
[15] = Table 11, C. Tropicalis USP 1658

MIC [1]: 1 µg/mL (≈ 1.08 µM)
MIC ([2]; Table 11, C. Tropicalis USP B3): 2 µg/mL (≈ 2.16 µM)
MIC (Candida krusei ATCC 6258; Table 11, C. krusei ATCC 6258): 1 µg/mL (≈ 1.08 µM)
MIC [3, 14]: 2 µg/mL (≈ 2.16 µM)
MIC [4, 15]: 1 µg/mL (≈ 1.08 µM)
MIC ([5]; Table 11, C. Albicans USP 1565): 1 µg/mL (≈ 1.08 µM)
MIC ([6]; Table 11, C. guilhermondii USP): 2 µg/mL (≈ 2.16 µM)
MIC [7]: 1.56 µg/mL (≈ 1.69 µM)
MIC [8]: 0.5 µg/mL (≈ 0.541 µM)
MIC [9]: 4 µg/mL (≈ 4.33 µM)
Compound: C[C@@H]1[C@H](O)[C@@H](C)/C=C/C=C/C=C/C=C/C=C/C=C/C=C/[C@H](O[C@@H]2O[C@H](C)[C@@H](O)[C@H](N)[C@@H]2O)C[C@@H]2O[C@](O)(C[C@@H](O)C[C@@H](O)[C@H](O)CC[C@@H](O)C[C@@H](O)CC(=O)O[C@H]1C)C[C@H](O)[C@H]2C(=O)O [AnfotericinaB, Anfotericina B]

MIC ([10]; Table 12, C. parapsilosis ATCC 22019, 48 h, 35° C.): <0.125 µg/mL
MIC (Candida krusei ATCC 6258; Table 12, C. krusei ATCC 6258, 48 h, 35° C.): <0.125 µg/mL
MIC ([11]; Table 12, C. albicans OF M3-20, 48 h, 35° C.): <0.125 µg/mL
MIC ([12]; Table 12, C. albicans OF M7-19, 48 h, 35° C.): <0.125 µg/mL
MIC (Candida albicans USP 1; Table 12, C. albicans USP 1, 48 h, 35° C.): <0.125 µg/mL
MIC ([3]; Table 12, C. parapsilosis USP 1933, 48 h, 35° C.): <0.125 µg/mL
MIC ([4]; Table 12, C. tropicalis USP 1658, 48 h, 35° C.): *<4 μg · mL^−1
MIC ([5]; Table 12, C. albicans USP 1565, 48 h, 35° C.): <0.125 µg/mL
MIC (Candida krusei USP 2223; Table 12, C. krusei USP 2223, 48 h, 35° C.): 2 µg/mL (≈ 3.76 µM)
MIC ([6]; Table 12, C. guilhermondii USP, 48 h, 35° C.): 0.125 µg/mL (≈ 0.235 µM)
MIC [7]: 4 µg/mL (≈ 7.53 µM)
MIC [8]: <0.125 µg/mL
MIC [9]: 2 µg/mL (≈ 3.76 µM)
MIC ([13]; Table 12, C. albicans ATCC 10231, 48 h, 35° C.): 32 µg/mL (≈ 60.2 µM)
Compound: CC(=O)N1CCN(c2ccc(OCC3COC(Cn4ccnc4)(c4ccc(Cl)cc4Cl)O3)cc2)CC1 (stereo not drawn) [Cetoconazol]

MIC ([1]; read-out: MIC): 16 µg/mL (≈ 52.2 µM)
MIC ([2]; Candida tropicalis, USPB3, Table 11, C. Tropicalis USP B3, read-out: MIC): 1 µg/mL (≈ 3.27 µM)
MIC (Candida krusei ATCC 6258; Pichia kudriavzevii, ATCC6258, Table 11, C. krusei ATCC 6258, read-out: MIC): 8 µg/mL (≈ 26.1 µM)
MIC ([3]; Lodderomyces parapsilosis, USP1933, Table 11, C. parapsilosis USP 1933, read-out: MIC): < 1 µg/mL
MIC ([4]; Candida tropicalis, USP1658, Table 11, C. Tropicalis USP 1658, read-out: MIC): < 1 µg/mL
MIC ([5]; Candida albicans, USP1565, Table 11, C. Albicans USP 1565, read-out: MIC): < 1 µg/mL
MIC (Candida krusei USP 2223; Pichia kudriavzevii, ATCC2223, Table 11, C. krusei ATCC 2223, read-out: MIC): 64 µg/mL (≈ 209 µM)
MIC ([6]; Candida, Table 11, C. guilhermondii USP, read-out: MIC): < 1 µg/mL
Compound: OC(Cn1cncn1)(Cn1cncn1)c1ccc(F)cc1F [Fluconazol]

MIC ([10]; Lodderomyces parapsilosis, ATCC22019, Table 14, C. parapsilosis ATCC 22019, read-out: MIC): 1.5 µg/mL (≈ 2.4 µM)
MIC ([2]; Candida tropicalis, USPB3, Table 14, C. Tropicalis UPS B3, read-out: MIC): 6 µg/mL (≈ 9.61 µM)
MIC (Candida glabrata ATCC): 0.375 µg/mL (≈ 0.6 µM)
MIC (Candida krusei ATCC 6258; Pichia kudriavzevii, ATCC6258, Table 14, C. krusei ATCC, read-out: MIC): 1.5 µg/mL (≈ 2.4 µM)
MIC ([11]; Candida albicans, OFM320, Table 14, C. Albicans OF M3-20, read-out: MIC): 3 µg/mL (≈ 4.8 µM)
MIC ([12]; Candida albicans, OFM719, Table 14, C. Albicans OF M7-19, read-out: MIC): 0.75 µg/mL (≈ 1.2 µM)
MIC (Candida albicans USP 1; Candida albicans, USP1, Table 14, C. Albicans USP 1, read-out: MIC): 1.5 µg/mL (≈ 2.4 µM)
MIC ([3]; Lodderomyces parapsilosis, USP1933, Table 14, C. parapsilosis USP 1933 ATCC, read-out: MIC): 3 µg/mL (≈ 4.8 µM)
MIC (C. Albicans USP 2): 3 µg/mL (≈ 4.8 µM)
MIC (Candida krusei USP 2223; Pichia kudriavzevii, USP2223, Table 14, C. krusei USP 2223, read-out: MIC): 1.5 µg/mL (≈ 2.4 µM)
MIC ([6]; Table 14, Candida guilhermondi USPATCC, read-out: MIC): 1.5 µg/mL (≈ 2.4 µM)
MIC ([13]; Candida albicans, ATCC10231, Table 14, C. Albicans ATCC 10231, read-out: MIC): 3 µg/mL (≈ 4.8 µM)
Compound: CC1OC(OC2C(O)C(COC(=O)/C=C/c3ccc(O)c(O)c3)OC(OCCc3ccc(O)c(O)c3)C2O)C(O)C(O)C1O (stereo not drawn) [Fraction P3, iso-verbascoside]
MFC (Candida krusei ATCC 6258; Pichia kudriavzevii, ATCC6258, Table 14, C. krusei ATCC, read-out: CFM (Minimum Fungicidal Concentration)): 12 µg/mL (≈ 19.2 µM)
MFC ([6]; Table 14, Candida guilhermondi USPATCC, read-out: CFM (Minimum Fungicidal Concentration)): 6 µg/mL (≈ 9.61 µM)

Compound: O=S([O-])S(=O)(=O)[O-].[Na+].[Na+] [Metabissulfito]
Antioxidant Activity Percentage (DPPH antioxidant test; sample 31.25 μg · mL^−1, 15 minutes at 30° C.): 0%
Antioxidant Activity Percentage (DPPH antioxidant test; sample 62.5 μg · mL^−1, 15 minutes at 30° C.): 0%
Antioxidant Activity Percentage (DPPH antioxidant test; sample 125 μg · mL^−1, 15 minutes at 30° C.): 1.33%
Antioxidant Activity Percentage (DPPH antioxidant test; sample 250 μg · mL^−1, 15 minutes at 30° C.): 4.62%
Antioxidant Activity Percentage (DPPH antioxidant test; sample 500 μg · mL^−1, 15 minutes at 30° C.): 8.63%
Antioxidant Activity Percentage (DPPH antioxidant test; sample 1 mg · mL^−1, 15 minutes at 30° C.): 15.3%

MIC ([1]; read-out: MIC): 0.25 µg/mL (≈ 0.858 µM)
MIC ([2]; Table 11, C. Tropicalis USP B3): —
MIC (Candida krusei ATCC 6258; Table 11, C. krusei ATCC 6258): —
MIC [3, 14]: —
MIC [4, 15]: —
MIC ([5]; Table 11, C. Albicans USP 1565): —
MIC (Candida krusei USP 2223; Table 11, C. krusei ATCC 2223): —
MIC ([6]; Table 11, C. guilhermondii USP): —
Compound: CN(C/C=C/C#CC(C)(C)C)Cc1cccc2ccccc12 [Terbinafina ®, Terbinafina]
